Laboratory results as given in patent publication US8946280B2, “Plant growth regulating compounds” (Syngenta Participations AG, priority 2010, dated 2015).

Tested on: Orobanche cumana Wallr. seeds (race F; seed lots IN146 and IN153)
Assay: Germination of preconditioned Orobanche cumana seeds on glass fiber filter paper in petri dishes
Assay type: in vivo
Details: mean, N = 5 × 100 seeds, re-transformed data; for Germination (%): seed lot IN146 raceF, examined 10 days later
Procedure: The effect of compounds of formula (I) on germination of Orobanche cumana Wallr. seeds was evaluated on glass fiber filter paper (GFFP) in petri dishes. Seeds were preconditioned at moisture and suitable temperature to become responsive to the specific chemical germination stimulants.
Test compounds were dissolved in DMSO (10 000 mg 1^−1) and stored at room temperature in a desiccators with desiccants. The stock solutions were dissolved with deionised water to the appropriate final test concentration.
Seeds of O. cumana race ‘F’ were collected from sunflower fields in Manzanilla (Seville, Spain) in 2006 (seed lot IN146) and 2008 (seed lot IN153) and stored at room temperature. To separate seeds from heavy organic debris, a modified sucrose floatation technique as described by Hartman & Tanimonure (Plant Disease (1991), 75, p. 494) was applied. Seeds were filled into a separation funnel and stirred in water. When seeds floated to the surface, the water fraction containing heavy debris was discarded. Seeds were re-suspended in 2.5M sucrose solution (specific gravity of 1.20) and heavy debris was allowed to settle down for 60 min. After removing debris, seeds were disinfected in 1% sodium hypochlorite solution and 0.025% (v/v) Tween 20 for 2 min. The seeds were decanted onto two layers of cheesecloth, rinsed with sterile deionised water and re-suspended in sterile deionised water. Two ml of the seed suspension containing approximately 150-400 seeds were spread evenly on two layers of sterile glass fiber filter paper disc ([…]) in Petri dishes (Ø9 cm). After wetting the discs with 3 ml sterile deionised water, petri dishes were sealed with parafilm. Seeds were incubated for 10 days at 20° C. in the dark for seed conditioning. The upper disc with conditioned seeds was briefly dried, transferred to a petri dish lined with a dry GFFP disc, and wetted with 6 ml of the appropriate test solution. The compounds of formula (I) were tested at concentrations of 0.001, 0.01, and 0.1 mg 1^−1. The strigolactone analogue GR24 (commercially available as a mixture of isomers) was included as positive control and 0.001% DMSO as negative control. All treatments were tested in five replicates. Seeds were re-incubated at 20° C. in the dark and examined for germination 10 days later. The radicles of germinated seeds were stained for 5 min with blue ink (MIGROS, Switzerland) in 5% acetic acid according to Long et al. (Seed Science Research (2008), 18, p. 125). After staining, seeds were scanned using a flatbed scanner with an optical resolution of 1200 dpi (PULSTEK, OpticPro ST28) or photographed using a camera stand mounted with a digital SLR camera (Canon EOS 5D). Germination of 100 seeds per replicate was evaluated on digital images. Seeds were considered germinated when the radicle protruded from the seed coat. SAS statistical software package version 9.1 was used for analysis of variance (GLM procedure) and multiple comparisons of treatment means (Sidak t-test) based on arcsine transformed percentage germination data.

[1] = Table 6, seed lot IN146, race F, 0.001 mg l^−1
[2] = Table 6, seed lot IN146, race F, 0.01 mg l^−1
[3] = Table 6, seed lot IN146, race F, 0.1 mg l^−1
[4] = Table 5, seed lot IN146, race F, 0.001 mg l^−1
[5] = Table 5, seed lot IN146, race F, 0.01 mg l^−1
[6] = Table 5, seed lot IN146, race F, 0.1 mg l^−1
[7] = 0.001 mg l^−1, lot IN146, raceF, Table 4
[8] = 0.01 mg l^−1, lot IN146, raceF, Table 4
[9] = 0.1 mg l^−1, lot IN146, raceF, Table 4
[10] = Table 7, seed lot IN153, race F, 0.001 mg l^−1
[11] = Table 7, seed lot IN153, race F, 0.01 mg l^−1
[12] = Table 7, seed lot IN153, race F, 0.1 mg l^−1
[13] = Table 8, seed lot IN153, race F, 0.001 mg l^−1
[14] = Table 8, seed lot IN153, race F, 0.01 mg l^−1
[15] = Table 8, seed lot IN153, race F, 0.1 mg l^−1

CC1=C[C@H](O/C=C2/C(=O)O[C@@H]3c4ccccc4C[C@H]23)OC1=O [GR24, reference compound]
Germination (%) (0.001 mg l^−1): 25.9%
Germination (%) (0.01 mg l^−1): 44.9%
Germination (%) (0.1 mg l^−1): 59.8%

CC1=CC(OC=C2C(=O)NC3c4ccc(F)cc4CC23)OC1=O (stereo not drawn) [Compound A9]
Germination % at concentration of 0.001 mg l^−1 [1]: 90.2 ab %
Germination % at concentration of 0.01 mg l^−1 [2]: 85.2 abc %
Germination % at concentration of 0.1 mg l^−1 [3]: 71.5 bc %

CC1=CC(OC=C2C(=O)N(C(=O)OC(C)(C)C)C3c4ccccc4CC23)OC1=O (mixture of isomers) [A15*]
Germination % at concentration of 0.001 mg l^−1 [4]: 0 e %
Germination % at concentration of 0.01 mg l^−1 [5]: 12.4 de %
Germination % at concentration of 0.1 mg l^−1 [6]: 25 d %

CC1=CC(OC=C2C(=O)NC3c4cccc(C)c4CC23)OC1=O (stereo not drawn) [Compound A5]
Germination % at concentration of 0.001 mg l^−1 [7]: 74.5 abc %
Germination % at concentration of 0.01 mg l^−1 [8]: 90 a %
Germination % at concentration of 0.1 mg l^−1 [9]: 85.5 ab %

CC1=CC(OC=C2C(=O)N(c3ccccc3)C3c4ccccc4CC23)OC1=O (stereo not drawn) [Compound A17]
Germination % at concentration of 0.001 mg l^−1 [10]: 99.2 a %
Germination % at concentration of 0.01 mg l^−1 [11]: 98.9 a %
Germination % at concentration of 0.1 mg l^−1 [12]: 99.4 a %

CC1=CC(OC=C2C(=O)N(c3ccc(Cl)cc3)C3c4ccccc4CC23)OC1=O (stereo not drawn) [Compound A18]
Germination % at concentration of 0.001 mg l^−1 [10]: 89.8 ab %
Germination % at concentration of 0.01 mg l^−1 [11]: 99.1 a %
Germination % at concentration of 0.1 mg l^−1 [12]: 99.1 a %

CC1=CC(OC=C2C(=O)N(c3ccc(C(F)(F)F)cc3)C3c4ccccc4CC23)OC1=O (mixture of isomers) [A19*]
Germination % at concentration of 0.001 mg l^−1 [13]: 71.5 abcde %
Germination % at concentration of 0.01 mg l^−1 [14]: 92.2 abc %
Germination % at concentration of 0.1 mg l^−1 [15]: 96.4 a %

GR-24
Germination % at concentration of 0.001 mg l^−1 [4]: 21.2 de %
Germination % at concentration of 0.01 mg l^−1 [5]: 33.3 cd %
Germination % at concentration of 0.1 mg l^−1 [6]: 45.9 bcd %
Germination % at concentration of 0.001 mg l^−1 [1]: 17.5 d %
Germination % at concentration of 0.01 mg l^−1 [2]: 61.4 c %
Germination % at concentration of 0.1 mg l^−1 [3]: 86.6 ab %
Germination % at concentration of 0.001 mg l^−1 [10]: 89.5 ab %
Germination % at concentration of 0.01 mg l^−1 [11]: 97.2 a %
Germination % at concentration of 0.1 mg l^−1 [12]: 96.2 ab %
Germination % at concentration of 0.001 mg l^−1 [13]: 84.1 abcde %
Germination % at concentration of 0.01 mg l^−1 [14]: 94.1 abc %
Germination % at concentration of 0.1 mg l^−1 [15]: 97.0 a %

CCCc1cccc2c1CC1C(=COC3C=C(C)C(=O)O3)C(=O)NC21 (stereo not drawn) [Compound A14]
Germination % at concentration of 0.001 mg l^−1 [4]: 85.3 ab %
Germination % at concentration of 0.01 mg l^−1 [5]: 91.5 a %
Germination % at concentration of 0.1 mg l^−1 [6]: 86.2 ab %

CC1=CC(OC=C2C(=O)N(c3nccs3)C3c4ccccc4CC23)OC1=O (stereo not drawn) [Compound A26]
Germination % at concentration of 0.001 mg l^−1 [13]: 93.9 abc %
Germination % at concentration of 0.01 mg l^−1 [14]: 95.4 ab %
Germination % at concentration of 0.1 mg l^−1 [15]: 93.9 abc %

CC1=CC(OC=C2C(=O)NC3c4cccc(Br)c4CC23)OC1=O (stereo not drawn) [Compound A2]
Germination % at concentration of 0.001 mg l^−1 [4]: 76.9 abc %
Germination % at concentration of 0.01 mg l^−1 [5]: 82 ab %
Germination % at concentration of 0.1 mg l^−1 [6]: 83.2 ab %

CC1=CC(OC=C2C(=O)NC3c4cc(C)ccc4CC23)OC1=O (stereo not drawn) [Compound A3]
Germination % at concentration of 0.001 mg l^−1 [10]: 96.4 ab %
Germination % at concentration of 0.01 mg l^−1 [11]: 98.5 a %
Germination % at concentration of 0.1 mg l^−1 [12]: 98.0 a %

CC1=CC(OC=C2C(=O)NC3c4ccc(Cl)cc4CC23)OC1=O (stereo not drawn) [Compound A10]
Germination % at concentration of 0.001 mg l^−1 [7]: 81.3 abc %
Germination % at concentration of 0.01 mg l^−1 [8]: 84.0 ab %
Germination % at concentration of 0.1 mg l^−1 [9]: 85.1 ab %

CC1=CC(O/C=C2/C(=O)NC3c4ccccc4C[C@H]23)OC1=O (stereo in doubt) [Compound P1, (3aR*,8bS*,5′R*)-3-[1-(4-Methyl-5-oxo-2,5-dihydro-furan-2-yloxy)-meth-(E)-ylidene]-3,3a,4,8b-tetrahydro-1H-indeno[1,2-b]pyrrol-2-one]
Germination (%) (0.001 mg l^−1): 70.5%
Germination (%) (0.01 mg l^−1): 83.7%
Germination (%) (0.1 mg l^−1): 83.1%

CC1=CC(OC=C2C(=O)NC3c4c(Br)cccc4CC23)OC1=O (stereo not drawn) [Compound A6]
Germination % at concentration of 0.001 mg l^−1 [7]: 22.3 cde %
Germination % at concentration of 0.01 mg l^−1 [8]: 59.2 abcd %
Germination % at concentration of 0.1 mg l^−1 [9]: 27.8 bcde %

CCOC(=O)N1C(=O)C(=COC2C=C(C)C(=O)O2)C2Cc3ccccc3C21 (stereo not drawn) [Compound A21]
Germination % at concentration of 0.001 mg l^−1 [13]: 83.7 abcde %
Germination % at concentration of 0.01 mg l^−1 [14]: 93.4 abc %
Germination % at concentration of 0.1 mg l^−1 [15]: 96.7 a %

COc1ccc(N2C(=O)C(=COC3C=C(C)C(=O)O3)C3Cc4ccccc4C32)cc1 (stereo not drawn) [Compound A20]
Germination % at concentration of 0.001 mg l^−1 [10]: 2.0 c %
Germination % at concentration of 0.01 mg l^−1 [11]: 14.4 c %
Germination % at concentration of 0.1 mg l^−1 [12]: 89.3 ab %

CC1=CC(OC=C2C(=O)NC3c4c(C#N)cccc4CC23)OC1=O (mixture of isomers) [A12*]
Germination % at concentration of 0.001 mg l^−1 [7]: 0 e %
Germination % at concentration of 0.01 mg l^−1 [8]: 4.2 e %
Germination % at concentration of 0.1 mg l^−1 [9]: 32 bcde %

CCCc1cccc2c1C1NC(=O)C(=COC3C=C(C)C(=O)O3)C1C2 (stereo not drawn) [Compound A13]
Germination % at concentration of 0.001 mg l^−1 [7]: 14.3 de %
Germination % at concentration of 0.01 mg l^−1 [8]: 64.5 abcd %
Germination % at concentration of 0.1 mg l^−1 [9]: 21.5 cde %

CC1=CC(OC=C2C(=O)N(c3ccc(C#N)cn3)C3c4ccccc4CC23)OC1=O (mixture of isomers) [A16*]
Germination % at concentration of 0.001 mg l^−1 [13]: 7.8 fg %
Germination % at concentration of 0.01 mg l^−1 [14]: 60.6 cde %
Germination % at concentration of 0.1 mg l^−1 [15]: 88.2 abc %

CC1=CC(OC=C2C(=O)NC3c4cccc(C#N)c4CC23)OC1=O (stereo not drawn) [Compound A11]
Germination % at concentration of 0.001 mg l^−1 [4]: 86.3 ab %
Germination % at concentration of 0.01 mg l^−1 [5]: 88.4 ab %
Germination % at concentration of 0.1 mg l^−1 [6]: 85.5 ab %
